Measured values from patent US20100143992A1, “Process for Fermentive Preparation of Alcohols and Recovery of Product” (E. I du Pont de Nemours and Company, priority 2008, published 2010).

Tests used:
[1] = Extraction of ethanol from an aqueous solution by ionic liquid; type: physicochemical; settings: 5 vol % ionic liquid; for g/L ethanol left in solution / mM Ethanol (in solution after extraction): 3 mL aqueous solution, about 31 g/L ethanol, overnight equilibration; for g/L ethanol left in solution: control 30.2; for mM Ethanol (in solution after extraction): control 655; for % EthOH Extracted: percentage of alcohol remaining in control
Experimental: (§2) The extraction of ethanol and isobutanol from an aqueous solution by selected ionic liquids was evaluated. […] Ethanol and isobutanol concentration in the solution was measured using HPLC as described above following thorough mixing and overnight equilibration of the contents of the vial.

[2] = test system: Lactobacillus zeae (ATCC 15820); test: Glucose Uptake Index (GUI) of culture grown with ionic liquid; type: cell-based; settings: 5% (v/v) ionic liquid, 16 hours at 30° C., GUI of control without ionic liquid 61.9
Experimental: (§1) After 24 hours the test tube was removed and used immediately.

[3] = test system: Lactobacillus fermentum (ATCC 14931); test: as above; type: cell-based; settings: 5% (v/v) ionic liquid, 16 hours at 30° C., GUI of control without ionic liquid 55.9
Experimental: as §1

[4] = Extraction of isobutanol from an aqueous solution by ionic liquid; type: physicochemical; settings: 5 vol % ionic liquid; for g/L isobutanol left in solution / mM isobutanol (in solution after extraction): 3 mL aqueous solution, about 31 g/L isobutanol, overnight equilibration; for g/L isobutanol left in solution: control 32.3; for mM isobutanol (in solution after extraction): control 436; for % isobutanol Extracted: percentage of alcohol remaining in control
Experimental: as §2

Compound	g/L ethanol left in solution [1] [g/L]	mM Ethanol (in solution after extraction) [1] [mM]	% EthOH Extracted [1] [%]	GUI of Sample (Glucose Utilization Index in the presence of ionic liquid phase) [2]	GUI of Sample (Glucose Utilization Index in the presence of ionic liquid phase) [3]	g/L isobutanol left in solution [4] [g/L]	mM isobutanol (in solution after extraction) [4] [mM]	% isobutanol Extracted [4] [%]
1-Butyl-3-methylimidazolium levulinate [[BMIM] [Lev]]	27.5	596	8.95	–	–	–	–	–
1-Ethyl-3-methylimidazolium levulinate [[EMIM] [Lev]]	–	–	–	41.4	32.3	–	–	–
CC1CCC(=O)N1CC[N+](C)(C)CCO.O=S(=O)([N-]S(=O)(=O)C(F)(F)F)C(F)(F)F (centres unmarked) [[MeDHEAP] [Tf2N], 1-(N,N,N-dimethyl(hydroxyethyl)aminoethyl)-5-methylpyrrolidone-2-one bis(trifluoromethane)sulfonamide]	–	–	–	–	–	30.9	417	4.68
CCOCC[N+](C)(C)CCN1C(=O)CCC1C (centres unmarked) [[MeDMEEAP] [HFPS]] [1-(N,N,N-dimethyl(ethylethoxy)aminoethyl)-5-methyl-pyrrolidine-2-one hexafluoropropanesulfonate]	30.2	656	0.00	46.9	34.5	31.3	422	3.38
CCOCC[N+](C)(C)CCN1C(=O)CCC1C (centres unmarked) [[MeDMEEAP] [Tf2N]] [1-(N,N,N-dimethyl(ethylethoxy)aminoethyl)-5-methyl-pyrrolidine-2-one bis(trifluoromethane)-sulfonamide]	29.4	637	2.66	49.5	37.6	29.5	398	9.48
COCC[N+](C)(C)CCN1C(=O)CCC1C (centres unmarked) [[MeDMMEAP] [HFPS], 1-(N,N,N-dimethyl(methylethoxy)aminoethyl)-5-methylpyrrolidin-2-one hexafluoropropanesulfonate]	29.7	645	1.48	45.1	31.3	31.4	423	3.00
CCC[N+](C)(C)CCN1C(=O)CCC1C.O=S(=O)([N-]S(=O)(=O)C(F)(F)F)C(F)(F)F (centres unmarked) [[MeDMPAP] [Tf2N], 1-(N,N,N-dimethylpropylaminoethyl)-5-methylpyrrolidone-2-one bis(trifluoromethane)sulfonamide]	–	–	–	–	–	28.7	387	12.7
COCC[N+](C)(C)CCN1C(=O)CCC1C.O=S(=O)([N-]S(=O)(=O)C(F)(F)F)C(F)(F)F (centres unmarked) [[[MeDMMEAP] [Tf2N], 1-(N,N,N-dimethyl(methylethoxy)aminoethyl)-5-methylpyrrolidone-2-one bis(trifluoromethane)sulfonamide]	29.6	643	1.88	–	–	28.8	389	12.1
